Measured values taken from patent publication US6337091B1, “Matrix for controlled delivery of highly soluble pharmaceutical agents” (Temple University - of the Commonwealth System of Higher …, priority 1997, dated 2002).

Tests used:
[1] = cited from earlier work
[2] = cited from earlier work; remark: listed apart in the source
[3] = Dissolution study of diltiazem hydrochloride tablets, USP 23 apparatus II (paddle), deionized water; assay type: physicochemical
Experimental: The system was automated using an HP diode array UV spectrophotometer, 8452a with continuous sampling, using a peristaltic pump (HP flow control, 89092A) and Mckinet software (HP 89532K Multicell Kinetics Software) for data analysis. Measurements were performed at 238 nm. […] Fresh dissolution medium (5 mL), heated to 37° C., was added to the vessel to maintain constant volume. Each experimental ran (n=3) was done at least in duplicate. […]

[4] = Dissolution study of propranolol tablets in deionized water; assay type: physicochemical
Experimental: The dissolution study was performed in 1,000 ml deionized water at 37° C. and 100 rpm. Measurements were performed at wavelength 289 nm.

correlation coefficient of release profile (linearity) ([3]; absence of either gelatin or tragacanth)	correlation coefficient of release profile (linearity) ([3]; diltiazem granulated/coated with gelatin, in binary polymeric matrix)	correlation coefficient of release profile (linearity) ([3]; diltiazem granulated/coated with tragacanth, in binary polymeric matrix)	degradation product, HPLC analysis (USP 23 method) ([3]; entire dissolution period)	correlation coefficient of release profile (linearity) ([4]; control)	correlation coefficient of release profile (linearity) ([4]; propranolol granulated/coated with gelatin, in binary polymeric matrix)	correlation coefficient of release profile (linearity) ([4]; propranolol granulated/coated with tragacanth, in binary polymeric matrix)	Compound	protein binding [1]	bioavailability ([2]; due to extensive variable first-pass metabolism) [%]	clearance from plasma ([2]; in vivo)	elimination half-life ([2]; in vivo) [h]
0.946	0.997	0.979	no degradation product	–	–	–	COc1ccc([C@@H]2Sc3ccccc3N(CCN(C)C)C(=O)[C@@H]2OC(C)=O)cc1 [diltiazem, Diltiazem]	greater than 90%	30 to 60	high clearance	3 to 6
–	–	–	–	0.927	0.994	0.989	CC(C)NCC(O)COc1cccc2ccccc12 (centres unmarked) [propranolol]	–	–	–	–
